Assay results taken from US20240417411A1, “COMPOUNDS AND METHODS FOR TREATMENT OF VIRAL INFECTIONS” (priority 2023, published 2024).
Structures can show the parent of a compound that is named as a salt. Where two headings read alike, the source gives them in different places.

Experiments:
[1] = in vitro; assay type: cell-based; settings: human
Procedure: Example C: CC50 MT4 Cytotoxicity of the compounds was determined in uninfected cells using the cell viability reagent in a similar fashion as described before for other cell types ([…] et al., Antimicrob Agents Chemother. 2008,52(2):655-65). […] Cells were cultured for 4-5 days at 37° C. Following the incubation, the cells were allowed to equilibrate to 25° C., and cell viability was determined by adding Cell-Titer Glo viability reagent. The mixture was incubated for 10 min, and the luminescence signal was quantified using an Envision plate reader. Untreated cell and cells treated at 2 μM puromycin (Sigma, St. Louis, MO) serve as 100% and 0% cell viability control, respectively. The percent of cell viability was calculated for each tested compound concentration relative to the 0% and 100% controls and the CC50 value was determined by non-linear regression as a compound concentration reducing the cell viability by 50%.

[2] = in vitro; settings: human, plasma
[3] = system: RSV-Luc5; experiment: microbe, parasite or virus in culture; assay type: cell-based; settings: human respiratory syncytial virus, NHBE, 72 h, read-out: RSV NHBE EC50 (nM)
[4] = in vitro; assay type: in vitro ADME; settings: human, s9, pH 7.4
Procedure: Example D: GI S9 Stability […] The S9 metabolic reactions were initiated by the addition of the substrates to the S9 reaction mixture to a final concentration of 2 μM. […] Aliquots ([…]) of the diluted supernatant were analyzed on a Thermo Q-Exactive mass spectrometer as described below. Example F: Liquid Chromatography/Mass Spectroscopy Methods for S9 and Plasma Stability Quantification of test compounds, Reference Compound A (S9 stability assay nucleoside metabolite), and controls was performed by analyte/internal standard peak area ratio (PAR) values measured on a Thermo Q-Exactive mass spectrometer coupled to a Dionex UltiMate 3000 HPLC with a Leap Technologies HTC PAL autosampler. […] Mobile phase A consisted of 0.1% (v/v) formic acid in water. Mobile phase B consisted of 0.1% (v/v) formic acid in acetonitrile. Elution of analytes was achieved by a series of linear gradients of acetonitrile in water containing 0.10% (v/v) formic acid. The mass spectrometer was calibrated on a weekly basis and mass tolerance of 5 ppm was used.

[5] = system: SARS-CoV2-NLuc; experiment: microbe, parasite or virus in culture; assay type: cell-based, SARS Coronavirus 2; settings: Severe acute respiratory syndrome coronavirus 2, 48 h, read-out: SARS-CoV2 EC50 (nM)
[6] = system: Caco-2 cells (clone C2BBe1); settings: human

Row | SMILES | CC50 [1] | half-life at 2 μM [2] | EC50 [3] | half-life at 2 μM [4] | EC50 [5] | Caco2 A to B ([6]; Caco-2) | Caco2 B to A ([6]; Caco-2) | half-life [2] | Caco2 A to B ([6]; Caco-2, 2 h) | Caco2 B to A ([6]; Caco-2, 2 h)
1 | CC(C)OC(=O)OC[C@H]1O[C@@](C#N)(c2ccc3c(N)ncnn23)[C@@H]2OC(=O)CCCC(=O)O[C@@H]21 [Compound C2, ((7aR,8R,10R,10aR)-10-(4-aminopyrrolo[2,1-f][1,2,4]triazin-7-yl)-10-cyano-2,6-dioxooctahydro-2H-furo[3,4-b][1,4]dioxonin-8-yl)methyl isopropyl carbonate] | > 50 µM | 7.8 min | 3350 nM | 0.616 min | 9600 nM | 1.66 | 7.32 |  |  | 
2 | CC(C)OC(=O)OC[C@H]1O[C@@](C#N)(c2ccc3c(N)ncnn23)[C@@H]2OC(=O)CC(C)(C)CC(=O)O[C@@H]21 [Compound C3, ((7aR,8R,10R,10aR)-10-(4-aminopyrrolo[2,1-f][1,2,4]triazin-7-yl)-10-cyano-4,4-dimethyl-2,6-dioxooctahydro-2H-furo[3,4-b][1,4]dioxonin-8-yl)methyl isopropyl carbonate] | > 50 µM | 1240 min | > 50000 nM | 6 min | 12000 nM | 5.9 | 7.3 |  |  | 
3 | CC(C)OC(=O)OC[C@H]1O[C@@](C#N)(c2ccc3c(N)ncnn23)[C@@H]2OC(=O)CN(C)CC(=O)O[C@@H]21 [Compound C4, ((7aR,8R,10R,10aR)-10-(4-aminopyrrolo[2,1-f][1,2,4]triazin-7-yl)-10-cyano-4-methyl-2,6-dioxooctahydro-2H-furo[3,4-b][1,4,7]dioxazonin-8-yl)methyl isopropyl carbonate] | > 50 µM | 65.6 min | 3120 nM | 0.694 min | 6730 nM | 0.023 | 2 |  |  | 
4 | CCOC(=O)OC[C@H]1O[C@@](C#N)(c2ccc3c(N)ncnn23)[C@@H]2OC(=O)CC(C)(C)CC(=O)O[C@@H]21 [Compound C14, ((7aR,8R,10R,10aR)-10-(4-aminopyrrolo[2,1-f][1,2,4]triazin-7-yl)-10-cyano-4,4-dimethyl-2,6-dioxooctahydro-2H-furo[3,4-b][1,4]dioxonin-8-yl)methyl ethyl carbonate] | > 50 µM | 27.1 min | > 50000 nM | 4.03 min | > 50000 nM | 4.27 | 8.55 |  |  | 
5 | N#C[C@@]1(c2ccc3c(N)ncnn23)O[C@H](COC(=O)OC2CCOCC2)[C@H]2OC(=O)CCCC(=O)O[C@H]21 [Compound C16, ((7aR,8R,10R,10aR)-10-(4-aminopyrrolo[2,1-f][1,2,4]triazin-7-yl)-10-cyano-2,6-dioxooctahydro-2H-furo[3,4-b][1,4]dioxonin-8-yl)methyl (tetrahydro-2H-pyran-4-yl) carbonate] | > 50 µM |  | 20000 nM | 0.605 min | 14900 nM | 0.68 | 5.08 | 14.1 min |  | 
6 | CN1[C@@H]2CC[C@H]1C[C@@H](OC(=O)OC[C@H]1O[C@@](C#N)(c3ccc4c(N)ncnn34)[C@@H]3OC(=O)CCCC(=O)O[C@@H]31)C2 [Compound C30, ((7aR,8R,10R,10aR)-10-(4-aminopyrrolo[2,1-f][1,2,4]triazin-7-yl)-10-cyano-2,6-dioxooctahydro-2H-furo[3,4-b][1,4]dioxonin-8-yl)methyl ((1R,3s,5S)-8-methyl-8-azabicyclo[3.2.1]octan-3-yl) carbonate formate] | > 50 µM | 24 min | > 50000 nM | 0.575 min | 42500 nM |  |  |  | 0.02 | 0.42
